Measured values taken from patent US5344780A, “Method for determining indole compounds associated with boar taint in pork as well as a sample container to be used in the method” (priority 1990, dated 1994).
Several values for one entry are separate records, joined by “and”; a condition that tells them apart may be missing. Equal entries are not always repeated.

Assay: HPLC-analysis of extracted lard with heating (Example 1; also reproducibility test)
Parameters: species or system pig
Method: The present Example illustrates the extraction on the entire sample of lard and the determination of indole and skatole by HPLC.
A sample of lard of 5 g is taken subcutaneously from the occipital region of a carcass. The sample is placed in a container and heated at 80° C. for 10 minutes in microwave oven in order to melt the fat. An amount of 5 ml of methanol is then added to the sample which is shaken, whereupon the sample is extracted for 10 minutes. Subsequently, the sample is filtered to remove the fat and connective tissue and analyzed by HPLC under the following conditions:
HPLC-apparatus: Merck HPLC with fluorescence detector and autosampler,
Eluant: water:methanol (20:80) (volume:volume)
Fluorescence detector: excitation wavelength=285 nm, emission wavelength=340 nm
Column: Lichrocart 250-4, Lichrospher 100 RP18, 5 micron, reverse phase
Injection volume: 20 microliter,
Detection limit: 5 ppb (0,005 ppm) in solution […]
The samples were such analyzed 10 times.

Structure (SMILES): Cc1c[nH]c2ccccc12 [Skatole, skatole]
- ppb skatole at HPLC-analysis, overall average (Table 2, 4 samples, n = 40): 48.47 ppb
- ppb skatole at HPLC-analysis, highest (Table 2, samples 1-4): 50.00 ppb and 50.93 ppb and 52.80 ppb and 51.87 ppb
- ppb skatole at HPLC-analysis, lowest (Table 2, samples 1-4): 44.13 ppb and 43.87 ppb and 49.07 ppb
- ppb skatole at HPLC-analysis, average per sample (Table 2, samples 1-4, 10 analyses each): 47.61 ppb and 47.63 ppb and 50.67 ppb and 47.96 ppb
- ppb skatole at HPLC-analysis, overall average (Table 3, 3 samples, n = 30): 71.38 ppb
- ppb skatole at HPLC-analysis (Table 3, sample 1, analyses 1-10): 72.00 ppb and 69.33 ppb and 74.67 ppb and 77.33 ppb
- ppb skatole at HPLC-analysis (Table 3, sample 2, analyses 1-10): 74.67 ppb and 69.33 ppb and 66.67 ppb and 72.00 ppb
- ppb skatole at HPLC-analysis (Table 3, sample 3, analyses 1-10): 72.00 ppb and 69.33 ppb and 66.67 ppb
- ppb skatole at HPLC-analysis, highest (Table 3, samples 1-3): 77.33 ppb and 74.67 ppb and 72.00 ppb
- ppb skatole at HPLC-analysis, lowest (Table 3, samples 1-3): 69.33 ppb and 66.67 ppb
- ppb skatole at HPLC-analysis, average per sample (Table 3, samples 1-3, 10 analyses each): 73.60 ppb and 70.13 ppb and 70.40 ppb
